From patent US20080248076A1, “ANTIMICROBIAL RUBBER BANDS” (priority 2007, published 2008)
Several values for one entry are separate records, joined by “and”; a condition that tells them apart may be missing. Identical values can stand only once.

Columns and labels:
Escherichia coli = assay: Growth Inhibitor Test (zone of inhibition / kill zone on agar); format: cell-based; details: E. coli, Standard Methods Agar, 48 hours at 32.0° C; heading says test organism died, assay invalid; Sodium Hypochlorite @ 100 ppm on paper disc
Excerpt: (§1) Test Scope: The Growth Inhibitor Test was used to determine the toxicity of a rubber band containing zinc pyrithione. Any presence of toxic residues in the test material (rubber band) will inhibit bacterial growth in the agar medium. A zone of inhibition or no growth of test organism around the test material indicates the presence of toxic residues in the test material. The intensity of inhibition is indicative of the concentration of the toxic agent.
(§2) Test Objective: Four (4) test organisms were used in this assay to determine toxicity. Each organism was suspended in specific agar medium, incubated at 35° C. for 48 hours, and then read to determine growth or no growth of test organism. Each test organism was grown individually in a Petri plate and the test material was planted unto the agar plate to determine the outcome. If no toxic residues were present in the test material, then the test bacteria grew around and under the test medium producing a “lawn effect.” If inhibitory substances were present in the test material, it would diffuse into the agar medium and prevent the growth of bacterial in the medium. The larger the zone of inhibition, the higher the concentration of toxic substances.
(§3) Test Organisms: The following four (4) organisms were employed: Escherichia coli, Staphylococcus aureus, Pseudomonas aeruginosa, and Pasteurella multocida. Each test organism's concentration was estimated to be 100,000 cfu to 1,000,000 cfu per milliliter.
(§4) Materials used included: 1. Baird Parker Agar for Staphylococcus aureus; 2. Standard Methods Agar for E. coli and Pseudomonas aeruginosa; 3. Tryptic Soy Agar for Pasteurella multocida; 4. 100 ppm chlorinated water to serve as a positive control; 5. Distilled water to serve as the negative control; 6. Quebec Colony Counter; 7. Incubator at 32.0 C; 8. Petri plates (85 mm diameter); 9. Vernier calibrators; 10.

Pasteurella multocida = assay: as above; format: cell-based; details: Tryptic Soy Agar, 48 hours at 32.0° C, rubber with 1000 ppm zinc pyrithione, Sodium Hypochlorite @ 100 ppm on paper disc
Excerpt: as §1, §2, §3, §4

Pseudomonas aeruginosa [1] = assay: as above; format: cell-based; details: Standard Methods Agar, 48 hours at 32.0° C, rubber with 1000 ppm zinc pyrithione, Sodium Hypochlorite @ 100 ppm on paper disc
Excerpt: as §1, §2, §3, §4

Staphylococcus aureus = assay: as above; format: cell-based; details: Baird Parker Agar, 48 hours at 32.0° C, rubber with 1000 ppm zinc pyrithione, Sodium Hypochlorite @ 100 ppm on paper disc
Excerpt: as §1, §2, §3, §4

Pseudomonas aeruginosa [2] = details: it has been reported; cited from earlier work
[3] = system: all of the organisms tested (Escherichia coli, Staphylococcus aureus, Pseudomonas aeruginosa, Pasteurella multocida); assay: Growth Inhibitor Test, overall conclusion; format: cell-based; details: versus sodium hypochlorite at 100 ppm disinfection concentration
Excerpt: as §1, §2
Test Organisms: The following four (4) organisms were employed: Escherichia coli, Staphylococcus aureus, Pseudomonas aeruginosa, and Pasteurella multocida. […]

OCl [Sodium Hypochlorite]
zone of inhibition or kill zone (Escherichia coli): 1.6 cm and 1.4 cm
zone of inhibition or kill zone (Pasteurella multocida): 3.5 cm and 3.2 cm
kill zone (Pseudomonas aeruginosa [1]): 3.1 cm and 3.0 cm
zone of inhibition or kill zone (Staphylococcus aureus): 3.0 cm and 2.5 cm

Oc1cc(Cl)ccc1Oc1ccc(Cl)cc1Cl [triclosan]
efficacy against Pseudomonas aeruginosa (Pseudomonas aeruginosa [2]): little or no efficacy

[O-][n+]1ccccc1[S-].[O-][n+]1ccccc1[S-].[Zn+2] [zinc pyrithione, zinc 2-pyridinethiol-n-oxide]
toxicity compared with sodium hypochlorite (similar kill zones) [3]: equal to the potency of sodium hypochlorite at 100 ppm
